This is an account of results in patent publication US12064509B2, “Enema for rectal application” (Dr. Falk Pharma GmbH, priority 2015, dated 2024).

The structures appear in SMILES notation.

The test system of data set [1] is patients with active ulcerative colitis. As to the kind of experiment: Placebo-controlled randomized double-blind multicenter parallel group comparative study (Japic CTI-132294), rectal budesonide foam. It is filed as in vivo, human. Here is the method:
Dose responsiveness, efficacy and safety are investigated for patients with active ulcerative colitis when budesonide 2 mg is rectally administered once a day or twice a day for 6 weeks by a double-blind comparative study with placebo as a control (clinical trial number: Japic CTI-132294). For the trial, an aerosol with fixed dose injection type for rectal injection (rectal foaming agent) is used as a test drug, in which 25 mL (1.35 g) of white creamy foam containing 2 mg of budesonide is released by one injection. As a remission induction therapeutic agent of ulcerative colitis in active phase where the lesion is confined to the rectum and sigmoid colon, the aerosol for rectal injection is approved in Europe at a dosage and dose of budesonide 2 mg once a day (trade name: Budenofalk 2 mg/dose rectal foam, manufactured by Dr. Falk Pharma GmbH). […] The subjects are ulcerative colitis patients in active phase, and are divided into a group administered the test drug once a day (hereinafter, once a day group, 54 cases), a group administered the test drug twice a day (hereafter, twice a day group, 55 cases), and a group administered the control drug (hereinafter, placebo group, 56 cases). The test drug or control drug is rectally administered twice a day (once in the morning and once in the evening), after defecation, if possible. However, for the once a day group of test drug, a control drug is administered in the morning and a test drug is administered in the evening. The number of injections per dose is one, the administration period is 6 weeks, and the drug is administered until the evening before the evaluation. The dose of budesonide in each group is 2 mg/day for the once a day group, 4 mg/day for the twice a day group, and 0 mg/day for the placebo group. Furthermore, in order to exclude patients whose symptoms improve due to the action of rectal administration (improvement example due to placebo effect) or patients who develop complaints resulting from rectal administration, a pre-observation period in which the control drug is administered twice a day (once in the morning and once in the evening) for one week under a single-blind test is set prior to this administration. […] The point estimate of the odds ratio for the placebo group (95% confidence interval on both sides) in the logistic regression model with model as main effect model, remission rate as objective variable, and administration group and assignment factor as explanatory variables is 3.994 (1.734 to 9.711) in the once a day group, and 3.674 (1.594 to 8.930) in the twice a day group. The lower limit value of 95% confidence interval on both sides exceeds 1 in both groups. […] In addition, the difference point estimate (95% confidence interval on both sides) from the placebo group is 22.8% (4.3% to 39.3%) in the once a day group, 30.5% (12.3% 46.0%) in the twice a day group. Significant differences are observed in the once a day group and twice a day group as compared with the placebo group. The results are illustrated in Table 1 and FIG. 1. In the table and figure, “budesonide once a day administration group” illustrates the result of once a day group, and “budesonide twice a day administration group” illustrates the result of twice a day group, respectively. Patients with MMDAI endoscopic score of 0 are evaluated as mucosal healing. […] In addition, the difference point estimate (95% confidence interval on both sides) from the placebo group is 18.1% (4.8% to 31.3%) in the once a day group, 40.9% (25.2% to 54.2%) in the twice a day group. Significant differences are observed in the once a day group and twice a day group as compared with the placebo group. […]

The test system is the same in data set [2]. The description is as above. The class given is in vivo, human. The source holds these as a separate data set.
The mark [3] stands for this setting: 2 mg once or twice a day, 6 weeks.
[4] abbreviates: budesonide 2 mg once a day, 6 weeks.
Setting [5] is: budesonide 2 mg twice a day, 6 weeks.
The mark [6] stands for this setting: once a day group, 55 analysis target cases.
Setting [7] is: twice a day group, 56 analysis target cases.

With `CCCC1O[C@@H]2C[C@H]3[C@@H]4CCC5=CC(=O)C=C[C@]5(C)[C@H]4[C@@H](O)C[C@]3(C)[C@]2(C(=O)CO)O1` (mixture of isomers) [Budesonide, (+)-[(RS)-16α,17α-Butylidenedioxy-11β,21-dihydroxy-1,4-pregnadiene-3,20-dione]], in data set [1] (setting [3]), the “adverse events due to administration of the test drug” value is “serum cortisol decrease and serum corticotropin decrease occurs”; the “serious adverse events or severe adverse events” value was “are not occurred”. In addition, in data set [1] (2 mg per dose, 6 weeks), the “incidence of adverse events, twice a day group compared with once a day group” value is listed as “increased”. In addition, the “tolerability to patients of ulcerative colitis” value in data set [1] (2 mg rectal administration once a day or twice a day for 6 weeks) is listed as “acceptable”. In addition, in data set [1] (setting [4]), the “mucosal healing rate (proportion of subjects with MMDAI endoscopic score of 0)” value stood at 23.6% and the “mucosal remission rate (proportion of subjects with MMDAI endoscopic score of 1 or less)” value is given as 69.1%. In addition, the “remission rate (MMDAI: bloody stool score 0, endoscopic score 1 or less, stool frequency score 0 or decrease of 1 point or more from week 0)” value in data set [1] (budesonide 2 mg rectal foam once a day, 6 weeks) is listed as 50.9%. Further, the “remission rate (MMDAI: bloody stool score 0, endoscopic score 1 or less, stool frequency score 0 or decrease of 1 point or more from week 0)” value in data set [1] (budesonide 2 mg rectal foam twice a day, 6 weeks) came out at 48.2%. In addition, in data set [1] (setting [5]), the “mucosal healing rate (proportion of subjects with MMDAI endoscopic score of 0)” value is recorded as 46.4% and the “mucosal remission rate (proportion of subjects with MMDAI endoscopic score of 1 or less)” value is reported as 76.8%. Also, in data set [1] (once a day group, 6 weeks), the “mucosal healing rate, point estimate of proportion difference from placebo group” value is on record as 18.1%; the “mucosal remission rate, point estimate of proportion difference from placebo group” value is listed as 22.8%; the “point estimate of the odds ratio versus the placebo group, mucosal healing rate (logistic regression)” value was 5.143; the “point estimate of the odds ratio versus the placebo group, remission rate (logistic regression)” value is recorded as 3.994. Besides, the “incidence of adverse events related to glucocorticoids” value in data set [1] (twice a day group compared with once a day group) is on record as “increase in the incidence of adverse events related to glucocorticoids is not observed”. Besides, in data set [1] (twice a day group, 6 weeks), the “mucosal healing rate, point estimate of proportion difference from placebo group” value is 40.9%; the “mucosal remission rate, point estimate of proportion difference from placebo group” value is reported as 30.5%; the “point estimate of the odds ratio versus the placebo group, mucosal healing rate (logistic regression)” value is recorded as 15.553; the “point estimate of the odds ratio versus the placebo group, remission rate (logistic regression)” value was 3.674. Besides, in data set [2] (setting [6]), the “Case (subjects in mucosal remission, endoscopic score 1 or less)” value was found to be 38 and the “Case (subjects with mucosal healing, endoscopic score 0)” value came to 13. In addition, in data set [2] (setting [7]), the “Case (subjects in mucosal remission, endoscopic score 1 or less)” value was 43 and the “Case (subjects with mucosal healing, endoscopic score 0)” value stood at 26.
